Results taken from patent US8669249B2, “Poly (ADP-ribose) polymerase (PARP) inhibitors” (Takeda Pharmaceutical Company Limited, priority 2009, dated 2014).

Biological target: T1, PARP (Homo sapiens, UniProt P09874)
T1 construct: purchased Trevigen 4684-096-K HT (kit); 4684-096-01 (PARP enzyme)
Experiment: PARP ELISA (ELISA-based colorimetric PARP/Apoptosis Assay kit, Trevigen)
Format: biochemical
Conditions: pIC50=-log10 IC50, IC50 in mol/L; inhibition of PARP catalytic activity
Protocol: Inhibition Constant (IC50) from PARP ELISA
After 10 minutes of catalysis the reaction is quenched by solvent aspiration followed by irrigation of the assay wells 4 times with phosphate buffered saline (PBS) containing 0.1% t-Octylphenoxypolyethoxyethanol (Triton® X-100). Mouse Anti-poly ADP ribose (PAR) monoclonal antibody, goat antimouse immunoglobulin G (IgG)-horse radish peroxidase (HRP) conjugate and HRP substrate are added according to the manufacture's specifications to generate a colorimetric signal proportional to PARP catalytic activity.

T1 sequence (P09874 whole entry): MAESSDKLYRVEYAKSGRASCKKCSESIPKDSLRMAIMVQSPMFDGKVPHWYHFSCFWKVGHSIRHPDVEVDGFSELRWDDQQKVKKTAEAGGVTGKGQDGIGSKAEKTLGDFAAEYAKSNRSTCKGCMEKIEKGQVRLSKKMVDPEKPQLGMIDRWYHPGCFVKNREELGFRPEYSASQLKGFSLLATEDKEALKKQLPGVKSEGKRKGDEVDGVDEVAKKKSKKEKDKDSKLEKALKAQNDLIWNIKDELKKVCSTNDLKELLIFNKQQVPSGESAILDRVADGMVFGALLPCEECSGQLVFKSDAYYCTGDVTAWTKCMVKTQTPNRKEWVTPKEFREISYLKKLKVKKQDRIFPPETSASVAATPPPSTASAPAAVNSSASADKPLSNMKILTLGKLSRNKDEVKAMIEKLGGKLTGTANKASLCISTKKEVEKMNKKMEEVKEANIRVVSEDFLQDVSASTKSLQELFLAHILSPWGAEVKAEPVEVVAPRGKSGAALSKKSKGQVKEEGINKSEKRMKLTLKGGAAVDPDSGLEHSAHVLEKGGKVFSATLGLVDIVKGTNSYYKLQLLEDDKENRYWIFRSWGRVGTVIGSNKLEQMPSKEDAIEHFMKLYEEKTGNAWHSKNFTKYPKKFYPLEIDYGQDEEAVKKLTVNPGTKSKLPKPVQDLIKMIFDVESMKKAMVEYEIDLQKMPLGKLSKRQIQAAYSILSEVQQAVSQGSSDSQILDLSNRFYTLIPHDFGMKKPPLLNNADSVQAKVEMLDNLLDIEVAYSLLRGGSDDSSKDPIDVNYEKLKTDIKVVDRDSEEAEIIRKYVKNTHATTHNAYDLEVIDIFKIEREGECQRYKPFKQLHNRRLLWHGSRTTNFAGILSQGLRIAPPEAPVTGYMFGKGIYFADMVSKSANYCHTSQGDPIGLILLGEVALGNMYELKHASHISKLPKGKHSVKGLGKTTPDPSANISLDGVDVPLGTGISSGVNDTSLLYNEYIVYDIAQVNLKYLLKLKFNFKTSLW

`C=CCc1cc(CN2CCN(c3ccc(C(=O)NCC)cc3)CC2)cc2c1OC(C)C(=O)N2` (centres unmarked) [Compound 356, 4-(4-((8-Allyl-2-methyl-3-oxo-3,4-dihydro-2H-benzo[b][1,4]oxazin-6-yl)methyl)piperazin-1-yl)-N-ethylbenzamide] gave an IC50 of 79.4 nM.
For `CC1Oc2ccc(CC3CCN(c4ccc(C(=O)NC5CC5)cc4)CC3)cc2NC1=O` (centres unmarked) [Compound 392, N-Cyclopropyl-4-(4-((2-methyl-3-oxo-3,4-dihydro-2I-benzo[b][1,4]oxazin-6-yl)methyl)piperidin-1-yl)benzamide], the IC50 was > 200 nM.
With `CCNC(=O)c1ccc(N2CCC(Oc3ccc4c(c3)NC(=O)C(C)O4)CC2)cc1` (centres unmarked) [Compound 396, N-Ethyl-4-(4-(2-methyl-3-oxo-3,4-dihydro-2H-benzo[b][1,4]oxazin-6-yloxy)piperidin-1-yl)benzamide] the IC50 was > 200 nM.
For `CNC(=O)c1ccc(N2CCC(Oc3ccc4c(c3)NC(=O)C(C)O4)CC2)cc1` (centres unmarked) [Compound 395, N-Methyl-4-(4-(2-methyl-3-oxo-3,4-dihydro-2H-benzo[b][1,4]oxazin-6-yloxy)piperidin-1-yl)benzamide], the IC50 was > 200 nM.
For `CC1Oc2c(Cl)cc(CN3CCN(c4ccc(C(=O)NC5CC5)cc4)CC3)cc2NC1=O` (centres unmarked) [Compound 311, 4-(4-((8-Chloro-2-methyl-3-oxo-3,4-dihydro-2H-benzo[b][1,4]oxazin-6-yl)methyl)piperazin-1-yl)-N-cyclopropylbenzamide], the IC50 was 39.8 nM.
For `Cc1c(CN2CC=C(c3ccc(Cl)cc3)CC2)ccc2c1NC(=O)C(C)O2` (centres unmarked) [Compound 326, 6-((4-(4-Chlorophenyl)-5,6-dihydropyridin-1(2H)-yl)methyl)-2,5-dimethyl-2H-benzo[b][1,4]oxazin-3(4H)-one], the IC50 was > 200 nM.
`CC1Oc2cc(F)c(CN3CCC(c4ccc(Cl)cc4)CC3)cc2NC1=O` (centres unmarked) [Compound 332, 6-((4-(4-Chlorophenyl)piperidin-1-yl)methyl)-7-fluoro-2-methyl-2H-benzo[b][1,4]oxazin-3(4H)-one] was tested, and the IC50 was > 200 nM.
With `CC1Oc2c(F)cc(CN3CCN(c4ccc(C(=O)O)cn4)CC3)cc2NC1=O` (centres unmarked) [Compound 313, 6-(4-((8-Fluoro-2-methyl-3-oxo-3,4-dihydro-2H-benzo[b][1,4]oxazin-6-yl)methyl)piperazin-1-yl)nicotinic acid] the IC50 was > 200 nM.
With `CCNC(=O)c1ccc(N2CCC(Cc3ccc4c(c3)NC(=O)C(C)O4)CC2)cc1` (centres unmarked) [Compound 393, N-Ethyl-4-(4-((2-methyl-3-oxo-3,4-dihydro-2H-benzo[b][1,4]oxazin-6-yl)methyl)piperidin-1-yl)benzamide] the IC50 was > 200 nM.
`CCOC(=O)c1ccc(N2CCN(Cc3cc4c(cc3F)OC(C)C(=O)N4)CC2)cc1` (centres unmarked) [Compound 333, Ethyl 4-(4-((7-fluoro-2-methyl-3-oxo-3,4-dihydro-2H-benzo[b][1,4]oxazin-6-yl)methyl)piperazin-1-yl)benzoate] was tested, and the IC50 was > 200 nM.
With `CCNC(=O)c1ccc(N2CCN(Cc3cc4c(c(-c5ccccc5)c3)OC(C)C(=O)N4)CC2)cc1` (centres unmarked) [Compound 349, N-Ethyl-4-(4-((2-methyl-3-oxo-8-phenyl-3,4-dihydro-2H-benzo[b][1,4]oxazin-6-yl)methyl)piperazin-1-yl)benzamide] the IC50 was > 200 nM.
With `CC1Oc2cc(F)c(CN3CCN(c4ccc(Cl)cc4)CC3)cc2NC1=O` (centres unmarked) [Compound 330, 6-((4-(4-Chlorophenyl)piperazin-1-yl)methyl)-7-fluoro-2-methyl-2H-benzo[b][1,4]oxazin-3(4H)-one] the IC50 was > 200 nM.
Work on `CC(C)NC(=O)c1ccc(N2CCN(Cc3cc(Cl)c4c(c3)NC(=O)C(C)O4)CC2)cc1` (centres unmarked) [Compound 310, 4-(4-((8-Chloro-2-methyl-3-oxo-3,4-dihydro-2H-benzo[b][1,4]oxazin-6-yl)methyl)piperazin-1-yl)-N-isopropylbenzamide] yielded an IC50 of 31.6 nM.
In the case of `CC1Oc2c(Cl)cc(CN3CCN(c4ccc(C(=O)O)cc4)CC3)cc2NC1=O` (centres unmarked) [Compound 307, 4-(4-((8-Chloro-2-methyl-3-oxo-3,4-dihydro-2H-benzo[b][1,4]oxazin-6-yl)methyl)piperazin-1-yl)benzoic acid], the IC50 is reported as > 200 nM.
